What was measured:
[1] = TE: Trolox equivalent
[2] = DPPH radical scavenging assay; settings: read-out: DPPH (EC50)
[3] = test system: human triple-negative MDA-MB-231 breast cancer cells; assay: MTT cell viability, MDA-MB-231; assay type: cell-based; settings: MDA-MB-231, 48 h, up to 30 µM
Protocol: (§1) MDA-MB-231 and LX2 cells were seeded in triplicate in 96-well plates at a density of 20,000 cells per well in 100 μL of medium and allowed to attach for 24 h at 37 °C and 5% CO2. Compounds were added at a final DMSO concentration of 0.5%, and cells were incubated for an additional 48 h. The pan-kinase inhibitor staurosporine (1 µM, Merck) was used as a reference compound, and the concentration was selected to efficiently induce cell death (≥90%). […]. The concentrations of Q-VD-OPh and ferrostatin-1 were chosen based on commonly applied ranges reported in the literature and were further optimized in preliminary experiments using the apoptosis inducers etoposide and staurosporine, as well as the ferroptosis inducer RSL3, to ensure suppression of apoptosis and ferroptosis, respectively. […] For the MTT assay, 20 µL of 3-(4,5-dimethylthiazol-2-yl)-2,5-diphenyltetrazolium bromide (MTT, 5 mg/mL in PBS pH = 7.4, sterile-filtered, Merck) solution was added to each well, and the cells were incubated for 1.5 h. […] Absorbance was measured at 570 nm using a SpectraMax iD3 plate reader (Molecular Devices). Absorbance values from ethanol-treated cells were used for background subtraction, and cell viability was expressed as percentage relative to the vehicle control (DMSO). […]

human LX2 stellate cells = assay: MTT cell viability, LX2; assay type: cell-based; settings: LX2, 48 h, up to 30 µM
Protocol: as §1

[4] = test system: Human MDA-MB-231 breast cancer cells; assay type: cell-based
Protocol: MDA-MB-231 and LX2 cells were seeded in triplicate in 96-well plates at a density of 20,000 cells per well in 100 μL of medium and allowed to attach for 24 h at 37 °C and 5% CO2. Compounds were added at a final DMSO concentration of 0.5%, and cells were incubated for an additional 48 h. The pan-kinase inhibitor staurosporine (1 µM, Merck) was used as a reference compound, and the concentration was selected to efficiently induce cell death (≥90%). […]. The concentrations of Q-VD-OPh and ferrostatin-1 were chosen based on commonly applied ranges reported in the literature and were further optimized in preliminary experiments using the apoptosis inducers etoposide and staurosporine, as well as the ferroptosis inducer RSL3, to ensure suppression of apoptosis and ferroptosis, respectively. […] Absorbance was measured at 570 nm using a SpectraMax iD3 plate reader (Molecular Devices). Absorbance values from ethanol-treated cells were used for background subtraction, and cell viability was expressed as percentage relative to the vehicle control (DMSO). […]
Cells were treated with vehicle (0.5% DMSO) or compounds at different concentrations (0.3, 1, 3, 10, and 30 μM) for 48 h. Cell viability measured by MTT assay. […]

MDA-MB-231 cells = assay: Inhibition of RSL3-induced ferroptotic cell death (MTT); assay type: cell-based, human; settings: at either 3 or 30 μM, RSL3 0.3 µM
Protocol: The anti-ferroptotic properties of the compounds were evaluated in MDA-MB-231 cells. Cells were seeded in 96-well plates at a density of 20,000 cells per well in 100 μL of medium. After 24 h at 37 °C and 5% CO2, cells were treated with the vehicle (0.5% DMSO) or the compounds at 3 µM and 30 µM alone or in combination with RSL3 (0.3 μM, Cayman Chemicals) for an additional 48 h. The cellular dehydrogenase activity was assessed by the reduction of MTT, as described in Section 2.4.
Radar plot illustrating cell viability measured by MTT assay. […] Data are presented as the mean of n = 3 independent experiments. * p < 0.05, ** p < 0.01; paired Student’s t-test.

| EC50 [2] | Compound | ORAC (TE) [1] | EC50 [3] | EC50 (human LX2 stellate cells) | effect of ferroptosis inhibitor Fer-1 on compound-induced cell death ([4]; Fer-1 10 μM, 48 h) | effect of apoptosis inhibitor Q-VD on compound-induced cell death ([4]; human) | cytoprotective effects against RSL3-induced ferroptosis (MDA-MB-231 cells) |
| --- | --- | --- | --- | --- | --- | --- | --- |
| > 1000 µM | COc1ccc2[nH]cc(CCO)c2c1 [MEL, 5-methoxytryptophol] | 2.23 ± 0.12 TE |  |  |  |  |  |
| > 1000 µM | OCCc1ccc(O)cc1 [TYR, tyrosol] | 2.18 ± 0.12 TE |  |  |  |  |  |
|  | COc1cc(/C=C/C(=O)CC(=O)/C=C/c2ccc(O)c(OC)c2)ccc1O [Curcumin] |  | 20 µM | 23 µM | partially attenuated by Fer-1 | tendentially by Q-VD | did not exhibit cytoprotective effects |
| 31 ± 2.6 µM | COc1cc(CCO)ccc1O [MTYR, 3-methoxy-tyrosol] | 2.90 ± 0.21 TE |  |  |  |  |  |

| Compound | EC50 [2] | ORAC (TE) [1] | EC50 [3] | EC50 (human LX2 stellate cells) | effect of ferroptosis inhibitor Fer-1 on compound-induced cell death ([4]; Fer-1 10 μM, 48 h) | effect of apoptosis inhibitor Q-VD on compound-induced cell death ([4]; human) | cytoprotective effects against RSL3-induced ferroptosis (MDA-MB-231 cells) |
| --- | --- | --- | --- | --- | --- | --- | --- |
| OCCc1ccc(O)c(O)c1 [HTYR, 3-hydroxy-tyrosol] | 12.3 ± 1 µM | 7.40 ± 0.17 TE |  |  |  |  |  |
